Assay results: paper PMC4965013, “Open Source Drug Discovery with the Malaria Box Compound Collection for Neglected Diseases and Beyond” (PLoS Pathogens, 2016)
Like-named read-outs stand apart in the source and are kept apart here.

Experiments:
[1] = tested on: P. falciparum; assay: EC50 listed in S2 Table Metabolomics (used to set the concentration tested); assay type: cell-based; settings: Plasmodium falciparum, read-out: EC50_nM
[2] = tested on: P. falciparum 3D7 trophozoites; assay: Metabolomic fingerprint profiling LC-MS; assay type: cell-based, Plasmodium falciparum; set-up: UDP-D-glucose / ADP-D-glucose: unit not given here; settings: for Acetyllysine / N-acetyl-L-ornithine / N-carbamoyl-L-aspartate / NADPH / dAMP / dCMP / dTDP / dTMP / dTTP / dihydroorotate / orotate / DLH / DLS/SDL/SID / PD / PEE / PVNF / 3-phosphoglycerate / ADP-D-glucose / ATP / CDP / D-sedoheptulose-1/7-phosphate / FAD / GMP / NAD+ / NADP+ / Octoluse Bisphosphate / Pyroglutamic acid / UDP-D-glucose / UDP-D-glucuronate / UDP-N-acetyl-glucosamine / UDP / UMP / UTP / a-ketoglutarate / citrate/isocitrate / cytidine / dATP / dGMP/AMP / fumarate / glucose-1/6-phosphate / glycerate / guanine / guanosine / hypoxanthine / indole / inosine / nicotinate / ornithine / phosphoenolpyruvate / pyruvate / ribose-phosphate / sarcosine/alanine / sn-glycerol-3-phosphate / succinate/methylmalonic acid / uridine / xanthosine: S2 Table Metabolomics; for Acetyllysine: metabolite Acetyllysine; for N-acetyl-L-ornithine: metabolite N-acetyl-L-ornithine; for N-carbamoyl-L-aspartate: metabolite N-carbamoyl-L-aspartate; for NADPH: metabolite NADPH; for dAMP: metabolite dAMP; for dCMP: metabolite dCMP; for dTDP: metabolite dTDP; for dTMP: metabolite dTMP; for dTTP: metabolite dTTP; for dihydroorotate: metabolite dihydroorotate; for orotate: metabolite orotate; for DLH: peptide DLH; for DLS/SDL/SID: peptide DLS/SDL/SID; for PD: peptide PD; for PEE: peptide PEE; for PVNF: peptide PVNF; for 3-phosphoglycerate: metabolite 3-phosphoglycerate; for ADP-D-glucose: metabolite ADP-D-glucose; for ATP: metabolite ATP; for CDP: metabolite CDP; for CDP / D-sedoheptulose-1/7-phosphate / GMP / Octoluse Bisphosphate / UDP / UMP / UTP / citrate/isocitrate / dGMP/AMP / fumarate / glucose-1/6-phosphate / glycerate / guanine / guanosine / inosine / pyruvate / sarcosine/alanine / succinate/methylmalonic acid / uridine / xanthosine: change in metabolite level after compound treatment; for D-sedoheptulose-1/7-phosphate: metabolite D-sedoheptulose-1/7-phosphate; for FAD: metabolite FAD; for GMP: metabolite GMP; for NAD+: metabolite NAD+; for NADP+: metabolite NADP+; for Octoluse Bisphosphate: metabolite Octoluse Bisphosphate; for Pyroglutamic acid: metabolite Pyroglutamic acid; for UDP-D-glucose: metabolite UDP-D-glucose; for UDP-D-glucuronate: metabolite UDP-D-glucuronate; for UDP-N-acetyl-glucosamine: metabolite UDP-N-acetyl-glucosamine; for UDP: metabolite UDP; for UMP: metabolite UMP; for UTP: metabolite UTP; for a-ketoglutarate: metabolite a-ketoglutarate; for citrate/isocitrate: metabolite citrate/isocitrate; for cytidine: metabolite cytidine; for dATP: metabolite dATP; for dGMP/AMP: metabolite dGMP/AMP; for fumarate: metabolite fumarate; for glucose-1/6-phosphate: metabolite glucose-1/6-phosphate; for glycerate: metabolite glycerate; for guanine: metabolite guanine; for guanosine: metabolite guanosine; for hypoxanthine: metabolite hypoxanthine; for indole: metabolite indole; for inosine: metabolite inosine; for 2_3-Diphosphoglyceric acid / 4-phosphopantothenate / 6-phospho-D-gluconate / FMN / IMP / Pyrophosphate / Sedoheptoluse bisphosphate / cyclic-AMP / glutathione disulfide / lactate / myo-inositol: metabolite level change after treatment; for nicotinate: metabolite nicotinate; for ornithine: metabolite ornithine; for phosphoenolpyruvate: metabolite phosphoenolpyruvate; for pyruvate: metabolite pyruvate; for ribose-phosphate: metabolite ribose-phosphate; for sarcosine/alanine: metabolite sarcosine/alanine; for sn-glycerol-3-phosphate: metabolite sn-glycerol-3-phosphate; for succinate/methylmalonic acid: metabolite succinate/methylmalonic acid; for uridine: metabolite uridine; for xanthosine: metabolite xanthosine
[3] = tested on: P. falciparum 3D7; assay: [3H]-hypoxanthine growth inhibition, modified HCO3- or O2; assay type: cell-based; settings: for IC50: Plasmodium falciparum

Structure (SMILES): CCC1(C)CC(CCNCc2ccccc2O)(c2ccc(C)cc2)CCO1 (stereo not shown) [MMV019406]
- EC50 [1]: 0.142 µM
- Acetyllysine [2]: -2.519
- N-acetyl-L-ornithine [2]: -1.511
- N-carbamoyl-L-aspartate [2]: -2.298
- NADPH [2]: 0.4736
- dAMP [2]: 0.284
- dCMP [2]: -0.09039
- dTDP [2]: 0.1057
- dTMP [2]: 0.004037
- dTTP [2]: -0.4082
- dihydroorotate [2]: -2.242
- orotate [2]: -1.534
- DLH [2]: -2.275
- DLS/SDL/SID [2]: -1.841
- PD [2]: -2.354
- PEE [2]: -2.262
- PVNF [2]: -2.251
- 3-phosphoglycerate [2]: -0.1564
- ADP-D-glucose [2]: -0.3945
- ATP [2]: -0.512
- CDP [2]: 0.05599
- D-sedoheptulose-1/7-phosphate [2]: -0.4162
- FAD [2]: -0.02006
- GMP [2]: -0.3975
- NAD+ [2]: 0.008417
- NADP+ [2]: -0.1427
- Octoluse Bisphosphate [2]: -0.6015
- Pyroglutamic acid [2]: 0.2098
- UDP-D-glucose [2]: -0.0942
- UDP-D-glucuronate [2]: -0.3214
- UDP-N-acetyl-glucosamine [2]: -0.03854
- UDP [2]: -0.04555
- UMP [2]: -0.1795
- UTP [2]: -0.2654
- a-ketoglutarate [2]: -0.6947
- citrate/isocitrate [2]: 0.006162
- cytidine [2]: 0.3562
- dATP [2]: 0.258
- dGMP/AMP [2]: 0.2244
- fumarate [2]: -1.313
- glucose-1/6-phosphate [2]: -0.1461
- glycerate [2]: -0.1204
- guanine [2]: -0.06557
- guanosine [2]: -0.1693
- hypoxanthine [2]: 0.07201
- indole [2]: -0.04528
- inosine [2]: -0.2118
- 2_3-Diphosphoglyceric acid [2]: -0.5043
- 4-phosphopantothenate [2]: -0.1061
- 6-phospho-D-gluconate [2]: -0.2502
- FMN [2]: -0.1097
- IMP [2]: -0.4258
- Pyrophosphate [2]: -0.3998
- Sedoheptoluse bisphosphate [2]: -0.4722
- cyclic-AMP [2]: -0.5498
- glutathione disulfide [2]: -0.423
- lactate [2]: -0.2201
- myo-inositol [2]: -0.4627
- nicotinate [2]: 0.2145
- ornithine [2]: -0.4607
- phosphoenolpyruvate [2]: -0.0532
- pyruvate [2]: 0.03561
- ribose-phosphate [2]: -0.5159
- sarcosine/alanine [2]: -1.233
- sn-glycerol-3-phosphate [2]: -0.3535
- succinate/methylmalonic acid [2]: -0.02906
- uridine [2]: -0.4944
- xanthosine [2]: -0.9536
- fold change (IC50normal/ IC50hypoxia) [3]: 2.3
- IC50 ([3]; 3D7, read-out: P. falciparum 3D7 IC50 1% O2): 0.236 µM
- IC50 ([3]; 3D7, read-out: P. falciparum 3D7 IC50 5% O2): 0.54 µM

Structure (SMILES): Cc1cc(C)cc(Nc2cc(C)nc3nc(C(F)(F)F)nn23)c1 [MMV011259]
- EC50 ([1]; EC50 used for Factor_XEC50 in metabolomics): 0.0857 µM
- Acetyllysine [2]: -0.3746
- N-acetyl-L-ornithine [2]: -0.3462
- N-carbamoyl-L-aspartate [2]: 3.644
- NADPH [2]: -0.3366
- dAMP [2]: -0.7598
- dCMP [2]: -0.2996
- dTDP [2]: -1.147
- dTMP [2]: -1.715
- dTTP [2]: -1.159
- dihydroorotate [2]: 4.069
- orotate [2]: -1.5889
- DLH [2]: -0.4322
- DLS/SDL/SID [2]: -0.5334
- PD [2]: -0.3116
- PEE [2]: -0.461
- PVNF [2]: -0.5009
- 3-phosphoglycerate [2]: -0.8854
- ADP-D-glucose [2]: -0.2124
- ATP [2]: -0.1449
- CDP [2]: -0.8411
- D-sedoheptulose-1/7-phosphate [2]: 0.2305
- FAD [2]: -0.12
- GMP [2]: 0.1977
- NAD+ [2]: -0.2042
- NADP+ [2]: -0.294
- Octoluse Bisphosphate [2]: -0.4132
- Pyroglutamic acid [2]: -0.07042
- UDP-D-glucose [2]: -0.2997
- UDP-D-glucuronate [2]: -0.2701
- UDP-N-acetyl-glucosamine [2]: -0.5126
- UDP [2]: -1.399
- UMP [2]: -1.28
- UTP [2]: -1.133
- a-ketoglutarate [2]: -0.631
- citrate/isocitrate [2]: -1.3117
- cytidine [2]: 0.1757
- dATP [2]: 0.0538
- dGMP/AMP [2]: -0.551
- fumarate [2]: -0.9126
- glucose-1/6-phosphate [2]: -0.8385
- glycerate [2]: -1.011
- guanine [2]: -0.4133
- guanosine [2]: -0.4081
- hypoxanthine [2]: -0.3413
- indole [2]: -0.1801
- inosine [2]: -0.6501
- 2_3-Diphosphoglyceric acid [2]: -0.2003
- 4-phosphopantothenate [2]: -0.5735
- 6-phospho-D-gluconate [2]: -1.0674
- FMN [2]: -0.3875
- IMP [2]: -0.2517
- Pyrophosphate [2]: -0.0001746
- Sedoheptoluse bisphosphate [2]: -0.416
- cyclic-AMP [2]: -0.9316
- glutathione disulfide [2]: -0.2721
- lactate [2]: -0.3904
- myo-inositol [2]: -0.254
- nicotinate [2]: -0.9132
- ornithine [2]: -0.1147
- phosphoenolpyruvate [2]: -0.7531
- pyruvate [2]: -0.8729
- ribose-phosphate [2]: -0.4441
- sarcosine/alanine [2]: -0.2762
- sn-glycerol-3-phosphate [2]: -0.2294
- succinate/methylmalonic acid [2]: -0.3522
- uridine [2]: -1.619
- xanthosine [2]: -0.6868
- fold change (IC50reduced/IC50normal) [3]: 2.2
- IC50 ([3]; 3D7, read-out: P. falciparum 3D7 IC50 HCO3- (2g/L), standard media): 0.059 µM
- IC50 ([3]; 3D7, HCO3- reduced media, read-out: P. falciparum 3D7 IC50 HCO3- reduced): 0.132 µM
